According to patent US9822114B2, “Tricyclic oxazolidinone antibiotic compounds” (Idorsia Pharmaceuticals Ltd, priority 2008, dated 2017):
In brackets after ≈: the same amount, converted by molar mass.

What follows are compounds tested on M. catarrhalis A894 (assay: Minimal inhibitory concentration (MIC), microdilution method in cation-adjusted Mueller-Hinton Broth (CLSI M7-A7)). Conditions: Moraxella catarrhalis, strain A894.
Assay type: cell-based
Protocol: Minimal inhibitory concentrations (MICs; mg/1) were determined in cation-adjusted Mueller-Hinton Broth by a microdilution method following the description given in “Methods for Dilution Antimicrobial Susceptibility Tests for Bacteria that Grow Aerobically”, Approved standard, 7th ed., Clinical and Laboratory Standards Institute (CLSI) Document M7-A7, Wayne, Pa., USA, 2006.

| MIC | SMILES |
| --- | --- |
| ≤ 0.031 µg/mL | N#Cc1ccc2ccc(=O)n3c2c1C(NCCC[C@@H]1CN(c2ccc4c(n2)NC(=O)CS4)C(=O)O1)C3 (mixture of isomers) [Example 118, (RS)-4-oxo-1-{3-[(R)-2-oxo-3-(3-oxo-3,4-dihydro-2H-pyrido[3,2-b][1,4]thiazin-6-yl)-oxazolidin-5-yl]-propylamino}-1,2-dihydro-4H-pyrrolo[3,2,1-ij]quinoline-9-carbonitrile] |
| ≤ 0.031 µg/mL | O=C1CSc2ccc(N3C[C@@H](CCCNC4CN5C(=O)CNc6ccc(F)c4c65)OC3=O)nc2N1 (mixture of isomers) [Example 200, (RS)-7-fluoro-6-{3-[(R)-2-oxo-3-(3-oxo-3,4-dihydro-2H-pyrido[3,2-b][1,4]thiazin-6-yl)-oxazolidin-5-yl]-propylamino}-1,2,5,6-tetrahydro-pyrrolo[1,2,3-de]quinoxalin-3-one] |
| ≤ 0.031 µg/mL | O=C1CSc2ccc(N3C[C@@H](CNCC4Cn5c(=O)ccc6ccc(F)c4c65)OC3=O)cc2N1 (mixture of isomers) [Example 5, (1RS)-9-fluoro-1-({[(R)-2-oxo-3-(3-oxo-3,4-dihydro-2H-benzo[1,4]thiazin-6-yl)-oxazolidin-5-ylmethyl]-amino}-methyl)-1,2-dihydro-pyrrolo[3,2,1-ij]quinolin-4-one] |
| 4 µg/mL | CCCc1ccc(N2C[C@@H](CCNC3Cn4c(=O)ccc5ccc(F)c3c54)OC2=O)cc1 (mixture of isomers) [Example 59, (RS)-9-fluoro-1-{2-[(R)-2-oxo-3-(4-propyl-phenyl)-oxazolidin-5-yl]-ethylamino}-1,2-dihydro-pyrrolo[3,2,1-ij]quinolin-4-one] |
| 0.25 µg/mL | O=C1COc2ccc(N3C[C@@H](CNCC4Cn5c(=O)ccc6cccc4c65)OC3=O)cc2N1 (mixture of isomers) [Example 82, (RS)-1-({[(R)-2-oxo-3-(3-oxo-3,4-dihydro-2H-benzo[1,4]oxazin-6-yl)-oxazolidin-5-ylmethyl]-amino}-methyl)-1,2-dihydro-pyrrolo[3,2,1-ij]quinolin-4-one] |
| 0.125 µg/mL | Cl.O=C1CSc2ccc(N3C[C@H](CCCN[C@H]4Cn5c(=O)ccc6c(C(=O)O)ccc4c65)OC3=O)cc2N1 [Example 121, (R)-4-oxo-1-{3-[(S)-2-oxo-3-(3-oxo-3,4-dihydro-2H-benzo[1,4]thiazin-6-yl)-oxazolidin-5-yl]-propylamino}-1,2-dihydro-4H-pyrrolo[3,2,1-ij]quinoline-7-carboxylic acid hydrochloride] |
| ≤ 0.031 µg/mL | C[C@H]1[C@H](NCCC[C@@H]2CN(c3ccc4c(n3)NC(=O)CS4)C(=O)O2)c2c(F)ccc3ccc(=O)n1c23 (relative stereo) [Example 185, (1R*,2S*)-9-fluoro-2-methyl-1-{3-[(R)-2-oxo-3-(3-oxo-3,4-dihydro-2H-pyrido[3,2-b][1,4]thiazin-6-yl)-oxazolidin-5-yl]-propylamino}-1,2-dihydro-pyrrolo[3,2,1-ij]quinolin-4-one] |
| ≤ 0.031 µg/mL | O=C1CSc2ccc(N3C[C@H](CCCN[C@@H]4Cn5c(=O)ccc6cccc4c65)OC3=O)cc2N1 [Example 85, (S)-1-{3-[(S)-2-oxo-3-(3-oxo-3,4-dihydro-2H-benzo[1,4]thiazin-6-yl)-oxazolidin-5-yl]-propylamino}-1,2-dihydro-pyrrolo[3,2,1-ij]quinolin-4-one] |
| ≤ 0.031 µg/mL | O=C1COc2ccc(N3C[C@@H](CCNC[C@@H]4Cn5c(=O)ccc6ccc(F)c4c65)OC3=O)nc2N1 (racemic) [Example 47, (RS)-9-fluoro-1-({2-[(RS)-2-oxo-3-(3-oxo-3,4-dihydro-2H-pyrido[3,2-b][1,4]oxazin-6-yl)-oxazolidin-5-yl]-ethylamino}-methyl)-1,2-dihydro-pyrrolo[3,2,1-ij]quinolin-4-one] |
| 0.031 µg/mL | O=C1CSc2ccc(N3C[C@@H](CNCC4Cn5c(=O)ccc6ncc(F)c4c65)OC3=O)cc2N1 (mixture of isomers) [Example 100, (RS)-3-fluoro-4-({[(R)-2-oxo-3-(3-oxo-3,4-dihydro-2H-benzo[1,4]thiazin-6-yl)-oxazolidin-5-ylmethyl]-amino}-methyl)-4,5-dihydro-pyrrolo[3,2,1-de][1,5]naphthyridin-7-one] |
| ≤ 0.031 µg/mL | O=C1CSc2ccc(N3C[C@@H](CCCNC4Cn5c(=O)cnc6ccc(F)c4c65)OC3=O)nc2N1 (mixture of isomers) [Example 199, (RS)-7-fluoro-6-{3-[(R)-2-oxo-3-(3-oxo-3,4-dihydro-2H-pyrido[3,2-b][1,4]thiazin-6-yl)-oxazolidin-5-yl]-propylamino}-5,6-dihydro-pyrrolo[1,2,3-de]quinoxalin-3-one] |
| ≤ 0.031 µg/mL | O=C1CSc2ccc(N3C[C@H](CCCN[C@@H]4CN5C(=O)CNc6ccc(F)c4c65)OC3=O)cc2N1 [Example 160, (S)-7-fluoro-6-{3-[(S)-2-oxo-3-(3-oxo-3,4-dihydro-2H-benzo[1,4]thiazin-6-yl)-oxazolidin-5-yl]-propylamino}-1,2,5,6-tetrahydro-pyrrolo[1,2,3-de]quinoxalin-3-one] |
| ≤ 0.031 µg/mL | O=C1CSc2ccc(N3C[C@@H](CCN[C@@H]4Cn5c(=O)ccc6cccc4c65)OC3=O)cc2N1 [Example 87, (S)-1-{2-[(R)-2-oxo-3-(3-oxo-3,4-dihydro-2H-benzo[1,4]thiazin-6-yl)-oxazolidin-5-yl]-ethylamino}-1,2-dihydro-pyrrolo[3,2,1-ij]quinolin-4-one] |
| ≤ 0.031 µg/mL | O=C1CSc2ccc(N3C[C@H](CCCN[C@H]4Cn5c(=O)ccc6cccc4c65)OC3=O)cc2N1 [Example 133, (R)-1-{3-[(S)-2-oxo-3-(3-oxo-3,4-dihydro-2H-benzo[1,4]thiazin-6-yl)-oxazolidin-5-yl]-propylamino}-1,2-dihydro-pyrrolo[3,2,1-ij]quinolin-4-one] |
| 0.125 µg/mL (≈ 0.247 µM) | O=C1CSc2ccc(N3C[C@H](CCCN[C@H]4Cn5c(=O)ccc6c(CO)ccc4c65)OC3=O)cc2N1 [Example 120, (R)-7-hydroxymethyl-1-{3-[(S)-2-oxo-3-(3-oxo-3,4-dihydro-2H-benzo[1,4]thiazin-6-yl)-oxazolidin-5-yl]-propylamino}-1,2-dihydro-pyrrolo[3,2,1-ij]quinolin-4-one] |
| 0.125 µg/mL (≈ 0.245 µM) | COc1nc2ccc(F)c3c2n(c1=O)C[C@@H]3NCCC[C@@H]1CN(c2ccc3c(c2)NC(=O)CO3)C(=O)O1 [Example 111, (R)-7-fluoro-2-methoxy-6-{3-[(R)-2-oxo-3-(3-oxo-3,4-dihydro-2H-benzo[1,4]oxazin-6-yl)-oxazolidin-5-yl]-propylamino}-5,6-dihydro-pyrrolo[1,2,3-de]quinoxalin-3-one] |
| ≤ 0.031 µg/mL | O=C1CSc2ccc(N3C[C@H](CNCCC4CN5C(=O)CCc6ccc(F)c4c65)OC3=O)cc2N1 (mixture of isomers) [Example 22, (1RS)-9-fluoro-1-(2-{[(S)-2-oxo-3-(3-oxo-3,4-dihydro-2H-benzo[1,4]thiazin-6-yl)-oxazolidin-5-ylmethyl]-amino}-ethyl)-1,2,5,6-tetrahydro-pyrrolo[3,2,1-ij]quinolin-4-one] |
| ≤ 0.031 µg/mL | O=C1COc2ccc(N3C[C@@H](CCNCC4Cn5c(=O)cnc6cccc4c65)OC3=O)cc2N1 (mixture of isomers) [Example 155, (RS)-6-({2-[(R)-2-oxo-3-(3-oxo-3,4-dihydro-2H-benzo[1,4]oxazin-6-yl)-oxazolidin-5-yl]-ethylamino}-methyl)-5,6-dihydro-pyrrolo[1,2,3-de]quinoxalin-3-one] |
| ≤ 0.031 µg/mL | O=C1CSc2ccc(N3C[C@@H](CCCNCC4Cn5c(=O)ccc6ccc(F)c4c65)OC3=O)cc2N1 (mixture of isomers) [Example 51, (RS)-9-fluoro-1-({3-[(R)-2-oxo-3-(3-oxo-3,4-dihydro-2H-benzo[1,4]thiazin-6-yl)-oxazolidin-5-yl]-propylamino}-methyl)-1,2-dihydro-pyrrolo[3,2,1-ij]quinolin-4-one] |
| ≤ 0.031 µg/mL | O=C1COc2ccc(N3C[C@@H](CCCN[C@H]4Cn5c(=O)ccc6nccc4c65)OC3=O)cc2N1 [Example 19, (4R)-4-{3-[(R)-2-oxo-3-(3-oxo-3,4-dihydro-2H-benzo[1,4]oxazin-6-yl)-oxazolidin-5-yl]-propylamino}-4,5-dihydro-pyrrolo[3,2,1-de][1,5]naphthyridin-7-one] |
| 16 µg/mL | O=C1O[C@H](CNCC2Cn3c(=O)ccc4ccc(F)c2c43)CN1c1ccc2c(c1)OCCO2 (mixture of isomers) [Example 31, (1RS)-1-({[(R)-3-(2,3-dihydro-benzo[1,4]dioxin-6-yl)-2-oxo-oxazolidin-5-ylmethyl]-amino}-methyl)-9-fluoro-1,2-dihydro-pyrrolo[3,2,1-ij]quinolin-4-one] |
| 16 µg/mL | CCCCc1ccc(N2C[C@@H](CNCC3Cn4c(=O)ccc5ccc(F)c3c54)OC2=O)cc1 (mixture of isomers) [Example 38, (RS)-1-({[(R)-3-(4-butyl-phenyl)-2-oxo-oxazolidin-5-ylmethyl]-amino}-methyl)-9-fluoro-1,2-dihydro-pyrrolo[3,2,1-ij]quinolin-4-one] |
| ≤ 0.031 µg/mL | O=C1CSc2ccc(N3C[C@H](CCCN[C@H]4Cn5c(=O)ccc6ncc(F)c4c65)OC3=O)cc2N1 [Example 139, (R)-3-fluoro-4-{3-[(S)-2-oxo-3-(3-oxo-3,4-dihydro-2H-benzo[1,4]thiazin-6-yl)-oxazolidin-5-yl]-propylamino}-4,5-dihydro-pyrrolo[3,2,1-de][1,5]naphthyridin-7-one] |
| ≤ 0.031 µg/mL | O=C1CSc2ccc(N3C[C@H](CCCN[C@H]4Cn5c(=O)ccc6ncc(F)c4c65)OC3=O)nc2N1 [Example 143, (R)-3-fluoro-4-{3-[(S)-2-oxo-3-(3-oxo-3,4-dihydro-2H-pyrido[3,2-b][1,4]thiazin-6-yl)-oxazolidin-5-yl]-propylamino}-4,5-dihydro-pyrrolo[3,2,1-de][1,5]naphthyridin-7-one] |
| ≤ 0.031 µg/mL | O=C1CSc2ccc(N3C[C@H](CCCN[C@@H]4Cn5c(=O)cnc6ccc(F)c4c65)OC3=O)cc2N1 [Example 79, (S)-7-fluoro-6-{3-[(S)-2-oxo-3-(3-oxo-3,4-dihydro-2H-benzo[1,4]thiazin-6-yl)-oxazolidin-5-yl]-propylamino}-5,6-dihydro-pyrrolo[1,2,3-de]quinoxalin-3-one] |
